From patent publication US9550811B2, “Peptide scaffold design” (BIONOR IMMUNO AS, priority 2010, dated 2017) come the findings set out here.

Among the test systems are HLA-B35; HLA-A24; HLA-A29; HLA-B8; HLA-B14; HLA-B15; HLA-A1.
What all share (experiment): REVEAL binding assay
Holding throughout (conditions): score as percentage of the signal generated by the positive control peptide

The next assay concerns HLA-B40. In a few lines: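 Score = % of signal from a positive-control T cell epitope, reflecting how well each ninemer stabilizes the native MHC class I–peptide complex. An intermediate control of lower affinity verified each run.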
For another assay, the target named is HLA-A3 (Homo sapiens, UniProt P04439). In outline: (§1)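 Synthetic nonamer peptides were tested for their ability to bind and stabilize MHC class I–peptide complexes, detected by the native conformation of the complex. Each peptide is scored relative to a positive-control known T-cell epitope.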
The next assay concerns the target HLA-A2 (Homo sapiens, UniProt P04439, D140Y/D185E/D98H/E176V/E277Q/G131W/G231S/I119V/I121R/I166T/I218V/N151K/N90K/P208A/P217A/Q86G/Q94H/R138H/R169H). In a few lines:
as §1

The next assay deals with HLA-A11 (Homo sapiens, UniProt P04439, A114D/F33Y/S129P). In a few lines: as §1
Another assay has as its target HLA-B7 (Homo sapiens, UniProt P01889). In a few lines: as §1
The target of another assay is HLA-B27 (Homo sapiens, UniProt P01889, D138H/D201E/E176V/E204Q/G107R/H137Y/K202T/N104T/N87E/Q56L/Q94K/R106L/R155S/R180L/S101D/S121N/S48T/Y140D/Y33H/Y91C). In a few lines:
as §1

Where no end group is shown, it is not given here. [ ]: non-standard residue; d: D form. Nle = CCCC[C@H](N)C(=O)O

Chain of HLA-A3 (P04439 25-299): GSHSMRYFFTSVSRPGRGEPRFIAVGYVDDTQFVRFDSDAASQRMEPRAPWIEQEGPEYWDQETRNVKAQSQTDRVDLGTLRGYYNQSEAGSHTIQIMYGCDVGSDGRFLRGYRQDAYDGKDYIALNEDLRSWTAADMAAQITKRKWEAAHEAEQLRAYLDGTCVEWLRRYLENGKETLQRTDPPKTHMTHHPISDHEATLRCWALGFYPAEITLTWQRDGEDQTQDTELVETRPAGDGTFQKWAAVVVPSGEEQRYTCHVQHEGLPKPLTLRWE
Chain of HLA-A3 (P61769 21-119, further chain): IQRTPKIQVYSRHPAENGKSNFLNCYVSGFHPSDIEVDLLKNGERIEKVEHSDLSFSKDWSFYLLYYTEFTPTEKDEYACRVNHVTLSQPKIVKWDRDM
Chain of HLA-B7 (P61769 21-119): as the sequence (P61769 21-119, further chain) above
Chain of HLA-B7 (P01889 25-299): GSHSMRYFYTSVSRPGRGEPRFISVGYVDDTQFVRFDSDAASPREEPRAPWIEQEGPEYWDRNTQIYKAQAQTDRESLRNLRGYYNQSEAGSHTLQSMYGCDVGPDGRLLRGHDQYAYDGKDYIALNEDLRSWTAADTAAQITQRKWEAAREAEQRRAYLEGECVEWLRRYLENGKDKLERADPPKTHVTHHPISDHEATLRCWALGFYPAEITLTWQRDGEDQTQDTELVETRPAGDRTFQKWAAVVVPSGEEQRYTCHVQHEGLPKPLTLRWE
From the text for HLA-A29: (§2) HLA-A1, HLA-A2, HLA-A3, HLA-A11, HLA-A24, HLA-A29, HLA-B7, HLA-B8, HLA-B14, HLA-B15, HLA-B27, HLA-B35, HLA-B40.
(§3) The REVEAL™ binding assay determined the ability of each candidate peptide to bind to one or more MHC class I alleles and stabilizing the MHC-peptide complex. […] Detection is based on the presence or absence of the native conformation of the MHC-peptide complex. Each peptide is given a score relative to the positive control peptide, which is a known T cell epitope.
From the text for HLA-B14: as §2, §3
From the text for HLA-B15: as §2, §3

On to RNLGKVIDT, for which the “REVEAL binding score, HLA-type B35” value in the assay on HLA-B35 was 4.40%. Moreover, the “REVEAL binding score, HLA-type B40” value with HLA-B40 amounted to 48.14%. For the same substance, the “REVEAL binding score, HLA-type A3” value with HLA-A3 is given as 3.15%. Also, the “REVEAL binding score, HLA-type A2” value in the assay with HLA-A2 was 6.42%. Moreover, the “REVEAL binding score, HLA-type A11” value in the assay with HLA-A11 was determined as 6.22%. Besides, the “REVEAL binding score, HLA-type B7” value with HLA-B7 came out at 2.42%. The “REVEAL binding score, HLA-type B27” value in the assay with HLA-B27 worked out at 2.73%. In addition, the “REVEAL binding score, HLA-type A24” value with HLA-A24 is given as 1.04%. Also, the “REVEAL binding score, HLA-type A29” value with HLA-A29 came out at 10.18%. Also, the “REVEAL binding score, HLA-type B8” value in the assay on HLA-B8 turned out to be 13.80%. Besides, the “REVEAL binding score, HLA-type B14” value in the assay with HLA-B14 is listed as 0.61%. In addition, in the assay with HLA-B15, the “REVEAL binding score, HLA-type B15” value was found to be 11.79%. In the assay with HLA-A1, the “REVEAL binding score, HLA-type A1” value came out at 18.90%.

Consider L[Nle]GYIPLIG, for which, in the assay on HLA-B35, the “REVEAL binding score, HLA-type B35” value was determined as 2.85%. Further, the “REVEAL binding score, HLA-type B40” value with HLA-B40 turned out to be 57.46%. Also, the “REVEAL binding score, HLA-type A3” value in the assay with HLA-A3 was 3.98%. The “REVEAL binding score, HLA-type A2” value with HLA-A2 worked out at 49.48%. For the same substance, the “REVEAL binding score, HLA-type A11” value in the assay with HLA-A11 was 2.48%. Besides, the “REVEAL binding score, HLA-type B7” value with HLA-B7 was 0.89%. The “REVEAL binding score, HLA-type B27” value with HLA-B27 came to 0.73%. For the same substance, the “REVEAL binding score, HLA-type A24” value in the assay on HLA-A24 was 0.71%. In addition, in the assay on HLA-A29, the “REVEAL binding score, HLA-type A29” value amounted to 25.94%. Besides, the “REVEAL binding score, HLA-type B8” value in the assay with HLA-B8 turned out to be 17.29%. Moreover, the “REVEAL binding score, HLA-type B14” value in the assay on HLA-B14 is given as 0.15%. Besides, the “REVEAL binding score, HLA-type B15” value in the assay on HLA-B15 stood at 14.60%. Further, in the assay with HLA-A1, the “REVEAL binding score, HLA-type A1” value is 14.33%.

For the substance NLGKVIDTL, the “REVEAL binding score, HLA-type B35” value with HLA-B35 is given as 4.39%. In addition, in the assay on HLA-B40, the “REVEAL binding score, HLA-type B40” value was determined as 53.82%. Moreover, in the assay with HLA-A3, the “REVEAL binding score, HLA-type A3” value is reported as 6.41%. Besides, the “REVEAL binding score, HLA-type A2” value in the assay with HLA-A2 was 7.70%. Besides, the “REVEAL binding score, HLA-type A11” value with HLA-A11 was found to be 12.81%. In the assay with HLA-B7, the “REVEAL binding score, HLA-type B7” value came to 2.64%. Further, the “REVEAL binding score, HLA-type B27” value in the assay with HLA-B27 is 2.64%. Further, the “REVEAL binding score, HLA-type A24” value in the assay on HLA-A24 is listed as 1.16%. Further, the “REVEAL binding score, HLA-type A29” value in the assay on HLA-A29 is on record as 10.67%. The “REVEAL binding score, HLA-type B8” value with HLA-B8 is recorded as 16.86%. Besides, the “REVEAL binding score, HLA-type B14” value in the assay with HLA-B14 was found to be 0.57%. Moreover, in the assay with HLA-B15, the “REVEAL binding score, HLA-type B15” value stood at 12.59%. The “REVEAL binding score, HLA-type A1” value in the assay on HLA-A1 is recorded as 18.14%.

With IRVIAHGLR, the “REVEAL binding score, HLA-type B35” value in the assay with HLA-B35 is 0.66%. Besides, the “REVEAL binding score, HLA-type B40” value in the assay with HLA-B40 is 26.45%. In addition, the “REVEAL binding score, HLA-type A3” value with HLA-A3 is given as 3.58%. Moreover, in the assay with HLA-A2, the “REVEAL binding score, HLA-type A2” value was found to be 4.83%. The “REVEAL binding score, HLA-type A11” value in the assay with HLA-A11 stood at 2.50%. Moreover, in the assay with HLA-B7, the “REVEAL binding score, HLA-type B7” value was determined as 3.50%. For the same substance, the “REVEAL binding score, HLA-type B27” value in the assay with HLA-B27 is recorded as 9.37%. Moreover, the “REVEAL binding score, HLA-type A24” value with HLA-A24 is listed as 0.50%. In addition, in the assay on HLA-A29, the “REVEAL binding score, HLA-type A29” value worked out at 23.19%. In addition, the “REVEAL binding score, HLA-type B8” value in the assay on HLA-B8 is recorded as 13.34%. Besides, the “REVEAL binding score, HLA-type B14” value with HLA-B14 is reported as 0.10%. In addition, the “REVEAL binding score, HLA-type B15” value in the assay with HLA-B15 is 8.99%. The “REVEAL binding score, HLA-type A1” value in the assay on HLA-A1 is given as 15.82%.

Regarding ADLMGYIPL, the “REVEAL binding score, HLA-type B35” value with HLA-B35 is 2.08%. For the same substance, the “REVEAL binding score, HLA-type B40” value in the assay on HLA-B40 was found to be 26.33%. The “REVEAL binding score, HLA-type A3” value with HLA-A3 was 1.93%. The “REVEAL binding score, HLA-type A2” value with HLA-A2 is on record as 8.06%. Further, in the assay with HLA-A11, the “REVEAL binding score, HLA-type A11” value came out at 3.35%. Besides, in the assay with HLA-B7, the “REVEAL binding score, HLA-type B7” value amounted to 0.73%. Further, in the assay with HLA-B27, the “REVEAL binding score, HLA-type B27” value was 1.01%. Also, the “REVEAL binding score, HLA-type A24” value in the assay on HLA-A24 worked out at 0.61%. For the same substance, the “REVEAL binding score, HLA-type A29” value with HLA-A29 stood at 14.51%. The “REVEAL binding score, HLA-type B8” value in the assay on HLA-B8 was 11.40%. In addition, the “REVEAL binding score, HLA-type B14” value with HLA-B14 turned out to be 0.13%. Further, the “REVEAL binding score, HLA-type B15” value in the assay on HLA-B15 amounted to 8.30%. Besides, the “REVEAL binding score, HLA-type A1” value in the assay on HLA-A1 is 31.05%.

For the substance LGKVIDTLT, the “REVEAL binding score, HLA-type B35” value in the assay with HLA-B35 amounted to 5.11%. Besides, the “REVEAL binding score, HLA-type B40” value with HLA-B40 worked out at 44.92%. The “REVEAL binding score, HLA-type A3” value with HLA-A3 is 7.39%. Moreover, the “REVEAL binding score, HLA-type A2” value with HLA-A2 is given as 4.05%. In addition, the “REVEAL binding score, HLA-type A11” value with HLA-A11 is listed as 12.95%. Besides, the “REVEAL binding score, HLA-type B7” value in the assay with HLA-B7 came to 0.94%. For the same substance, the “REVEAL binding score, HLA-type B27” value in the assay with HLA-B27 is on record as 2.90%. The “REVEAL binding score, HLA-type A24” value with HLA-A24 was found to be 0.70%. The “REVEAL binding score, HLA-type A29” value in the assay with HLA-A29 is 15.99%. Further, the “REVEAL binding score, HLA-type B8” value in the assay on HLA-B8 is on record as 17.96%. Also, in the assay with HLA-B14, the “REVEAL binding score, HLA-type B14” value amounted to 0.43%. Moreover, the “REVEAL binding score, HLA-type B15” value with HLA-B15 turned out to be 7.14%. The “REVEAL binding score, HLA-type A1” value with HLA-A1 was 22.08%.
